# Laboratory results taken from ChEMBL document CHEMBL4190339, “Design, synthesis and preliminary biological evaluation of new [1,2,3]triazolo[4,5-d]pyrimidine/thiourea hybrids as antiproliferative agents” (Eur J Med Chem, 2017).
# Columns and labels:
# MKN-45 = experiment: Antiproliferative activity against human MKN45 cells after 48 hrs by MTT assay; format: functional, cell-based; conditions: MKN-45, 48 h
# NCI-H1650 = experiment: Antiproliferative activity against human NCI-H1650 cells after 48 hrs by MTT assay; format: functional, cell-based; conditions: NCI-H1650, 48 h
# ECa-109 cell line = experiment: Antiproliferative activity against human EC109 cells after 48 hrs by MTT assay; format: functional, cell-based; conditions: ECa-109, 48 h
# A549 = experiment: Antiproliferative activity against human A549 cells after 48 hrs by MTT assay; format: functional, cell-based; conditions: A549, 48 h
# GES1 = experiment: Antiproliferative activity against human GES-1 cells after 48 hrs by MTT assay; format: cell-based; conditions: GES1, 48 h
# MGC-803 = experiment: Antiproliferative activity against human MGC803 cells after 48 hrs by MTT assay; format: functional, cell-based; conditions: MGC-803, 48 h
Structure (SMILES),IC50 (MKN-45),IC50 (NCI-H1650),IC50 (ECa-109 cell line),IC50 (A549),IC50 (GES1),IC50 (MGC-803)
CCCSc1nc(NCCNC(=S)NCc2ccccc2)c2nnn(CCc3ccccc3)c2n1,22.9 µM,> 64 µM,13.8 µM,> 64 µM,51.3 µM,17.4 µM
CCCSc1nc(NCCNC(=S)Nc2cccnc2)c2nnn(CCc3ccccc3)c2n1,6.58 µM,2.38 µM,4.99 µM,8.23 µM,30.3 µM,16.4 µM
CCCSc1nc(NCCNC(=S)Nc2cccnc2)c2nnn(C3CCCC3)c2n1,13.5 µM,8.99 µM,12.6 µM,15.1 µM,32.9 µM,19.2 µM
CCCCc1ccc(NC(=S)NCCNc2nc(SCCC)nc3c2nnn3CCc2ccccc2)cc1,> 64 µM,40.9 µM,18.9 µM,> 64 µM,> 64 µM,31.2 µM
CCCSc1nc(NCCNC(=S)Nc2cccc(Cl)c2)c2nnn(CCc3ccccc3)c2n1,30.1 µM,17 µM,11.8 µM,15.8 µM,60.4 µM,27 µM
O=c1[nH]cc(F)c(=O)[nH]1 [FLUOROURACIL],,,,,9.02 µM,
CCCSc1nc(NCCNC(=S)Nc2ccc(Cl)cc2)c2nnn(CCc3ccccc3)c2n1,37.6 µM,13.2 µM,10.6 µM,23.2 µM,41.2 µM,27.2 µM
CCCSc1nc(NCCNC(=S)Nc2ccc(Br)cc2)c2nnn(CCc3ccccc3)c2n1,40 µM,51.1 µM,23.1 µM,32.5 µM,> 64 µM,38.1 µM
CCCSc1nc(NCCNC(=S)Nc2ccc([N+](=O)[O-])cc2)c2nnn(CCc3ccccc3)c2n1,48.2 µM,26.1 µM,58.1 µM,39.1 µM,35.2 µM,> 64 µM
CCCSc1nc(NCCNC(=S)Nc2ccccc2)c2nnn(CCc3ccccc3)c2n1,> 64 µM,49.5 µM,37.2 µM,> 64 µM,53.1 µM,> 64 µM
